Results: article PMC5783306 (Nature, 2017)

Legend:
[1] = target: T1, TAX-4 (Caenorhabditis elegans, UniProt Q03611); experiment: cryo-EM structure at […] Å of cGMP-bound channel; assay type: cell-based
T1 sequence (Q03611 1-733): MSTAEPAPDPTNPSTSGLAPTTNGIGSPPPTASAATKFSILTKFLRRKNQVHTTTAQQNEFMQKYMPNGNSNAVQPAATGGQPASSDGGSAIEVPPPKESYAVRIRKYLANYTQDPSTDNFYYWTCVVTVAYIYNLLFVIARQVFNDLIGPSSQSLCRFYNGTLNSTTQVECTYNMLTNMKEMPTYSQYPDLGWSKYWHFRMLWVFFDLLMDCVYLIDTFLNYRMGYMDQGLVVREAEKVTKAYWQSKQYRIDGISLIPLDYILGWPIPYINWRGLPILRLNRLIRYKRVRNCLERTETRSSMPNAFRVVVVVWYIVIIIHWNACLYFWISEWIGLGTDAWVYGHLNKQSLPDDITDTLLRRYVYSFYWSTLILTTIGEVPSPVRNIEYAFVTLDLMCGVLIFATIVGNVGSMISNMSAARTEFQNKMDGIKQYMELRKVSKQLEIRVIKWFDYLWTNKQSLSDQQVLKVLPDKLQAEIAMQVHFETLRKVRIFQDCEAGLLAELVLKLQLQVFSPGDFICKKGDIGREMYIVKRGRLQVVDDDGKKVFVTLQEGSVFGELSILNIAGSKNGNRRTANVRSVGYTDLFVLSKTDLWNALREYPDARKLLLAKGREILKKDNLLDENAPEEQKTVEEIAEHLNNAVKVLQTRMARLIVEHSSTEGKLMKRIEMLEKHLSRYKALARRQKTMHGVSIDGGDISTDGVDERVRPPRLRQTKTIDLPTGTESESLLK

[2] = target: the molecule itself; experiment: cryo-EM structure

Nc1nc2c(ncn2[C@@H]2O[C@@H]3COP(=O)(O)O[C@H]3[C@H]2O)c(=O)[nH]1 [cGMP]
EC50 [1]: 160 nM

B1: TAX-4 (cyclic nucleotide-gated channel CNGA subunit from C. elegans), cGMP-bound (natural protein, UniProt Q03611 1-733, looked up)
chain: MSTAEPAPDPTNPSTSGLAPTTNGIGSPPPTASAATKFSILTKFLRRKNQVHTTTAQQNEFMQKYMPNGNSNAVQPAATGGQPASSDGGSAIEVPPPKESYAVRIRKYLANYTQDPSTDNFYYWTCVVTVAYIYNLLFVIARQVFNDLIGPSSQSLCRFYNGTLNSTTQVECTYNMLTNMKEMPTYSQYPDLGWSKYWHFRMLWVFFDLLMDCVYLIDTFLNYRMGYMDQGLVVREAEKVTKAYWQSKQYRIDGISLIPLDYILGWPIPYINWRGLPILRLNRLIRYKRVRNCLERTETRSSMPNAFRVVVVVWYIVIIIHWNACLYFWISEWIGLGTDAWVYGHLNKQSLPDDITDTLLRRYVYSFYWSTLILTTIGEVPSPVRNIEYAFVTLDLMCGVLIFATIVGNVGSMISNMSAARTEFQNKMDGIKQYMELRKVSKQLEIRVIKWFDYLWTNKQSLSDQQVLKVLPDKLQAEIAMQVHFETLRKVRIFQDCEAGLLAELVLKLQLQVFSPGDFICKKGDIGREMYIVKRGRLQVVDDDGKKVFVTLQEGSVFGELSILNIAGSKNGNRRTANVRSVGYTDLFVLSKTDLWNALREYPDARKLLLAKGREILKKDNLLDENAPEEQKTVEEIAEHLNNAVKVLQTRMARLIVEHSSTEGKLMKRIEMLEKHLSRYKALARRQKTMHGVSIDGGDISTDGVDERVRPPRLRQTKTIDLPTGTESESLLK
stoichiometry N [2]: 4
